{"source": "patent US20230085307A1", "about": "“PYRIDAZINONE COMPOUND AND HERBICIDE” (NISSAN CHEMICAL CORPORATION, priority 2019, published 2023)", "key": {"[1]": {"tested_on": "oval-leafed pondweed", "assay": "Test Example 2: herbicidal activity, application during weed generation under submerged conditions (Table 17, symbol C)", "type": "in vivo, oval-leafed pondweed (Monochoria vaginalis)", "conditions": "AAH 320 g/ha; application during weed generation, submerged conditions", "how_it_was_run": "(§1)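 Wagner pot, alluvial soil, 4 cm flood; mixed sowing of all species; greenhouse 25° C.–30° C. Emulsifiable formulation, water-diluted to predetermined dose, applied to paddy water at 1–2 leaf stage. Effect rated at 3 wk using the earlier test's scoring criteria.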"}, "[2]": {"tested_on": "Japanese bulrush", "assay": "Test Example 2: herbicidal activity, application during weed generation under submerged conditions (Table 17, symbol B)", "type": "in vivo, Japanese bulrush (Schoenoplectus juncoides)", "conditions": "AAH 320 g/ha; application during weed generation, submerged conditions", "how_it_was_run": "as §1"}, "[3]": {"tested_on": "barnyard grass", "assay": "Test Example 3: herbicidal effect by foliage application, Wagner pot (Table 18, symbol H)", "type": "in vivo, barnyard grass (Echinochloa crus-galli)", "conditions": "amount of applied herbicide 320 g/ha", "how_it_was_run": "(§2)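 Plants were sown in alluvial soil held under 0.1–0.5 cm standing water and grown 14 days in a greenhouse at 25–30 °C. An emulsifiable formulation, water-diluted to the set dose, was then sprayed onto the foliage, and effects were scored three weeks later using previously defined criteria.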"}, "[4]": {"tested_on": "green foxtail", "assay": "Test Example 5: herbicidal effect by foliage application, plastic box (Table 20, symbol G)", "type": "in vivo, green foxtail (Setaria viridis)", "conditions": "foliage application, 320 g/ha, evaluated three weeks after application", "how_it_was_run": "(§3)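 Plants were sown into sterilized diluvial soil under about 1.5 cm cover and kept in a greenhouse at 25° C. to 30° C. Fourteen days on, foliage received an even spray of the diluted emulsion. Herbicidal or crop effect was judged three weeks afterwards.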"}, "[5]": {"tested_on": "windgrass", "assay": "Test Example 5: herbicidal effect by foliage application, plastic box (Table 20, symbol L)", "type": "in vivo, windgrass (Apera spica-venti)", "conditions": "foliage application, 320 g/ha, evaluated three weeks after application", "how_it_was_run": "as §3"}, "[6]": {"tested_on": "Chinese sprangletop", "assay": "Test Example 3: herbicidal effect by foliage application, Wagner pot (Table 18, symbol D)", "type": "in vivo, chinese sprangletop (Leptochloa chinensis)", "conditions": "amount of applied herbicide 320 g/ha", "how_it_was_run": "as §2"}, "[7]": {"tested_on": "redroot pigweed", "assay": "Test Example 5: herbicidal effect by foliage application, plastic box (Table 20, symbol N)", "type": "in vivo, redroot pigweed (Amaranthus retroflexus)", "conditions": "foliage application, 320 g/ha, evaluated three weeks after application", "how_it_was_run": "as §3"}, "[8]": {"tested_on": "blackgrass", "assay": "Test Example 5: herbicidal effect by foliage application, plastic box (Table 20, symbol J)", "type": "in vivo, blackgrass (Alopecurus myosuroides)", "conditions": "foliage application, 320 g/ha, evaluated three weeks after application", "how_it_was_run": "as §3"}, "[9]": {"tested_on": "lambsquarters", "assay": "Test Example 5: herbicidal effect by foliage application, plastic box (Table 20, symbol O)", "type": "in vivo, lambsquarters (Chenopodium album)", "conditions": "foliage application, 320 g/ha, evaluated three weeks after application", "how_it_was_run": "as §3"}, "[10]": {"tested_on": "southern crabgrass", "assay": "Test Example 5: herbicidal effect by foliage application, plastic box (Table 20, symbol F)", "type": "in vivo, southern crabgrass (Digitaria ciliaris)", "conditions": "foliage application, 320 g/ha, evaluated three weeks after application", "how_it_was_run": "as §3"}, "[11]": {"tested_on": "late watergrass", "assay": "Test Example 1: herbicidal activity, application before weed generation under submerged conditions (Table 16, symbol A)", "type": "in vivo, late watergrass (Echinochloa oryzicola)", "conditions": "320 g/ha applied herbicide", "how_it_was_run": "(§4)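 Submerged Wagner pots (alluvial soil, 4 cm water) sown with weed seeds and planted with 2.5-leaf rice seedlings; emulsifiable concentrate diluted in water applied to water surface on sowing day. Held in greenhouse at 25-30 °C; injury scored 0-5 by herbicidal rate after three weeks.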"}, "[12]": {"tested_on": "rice flat sedge", "assay": "Test Example 3: herbicidal effect by foliage application, Wagner pot (Table 18, symbol E)", "type": "in vivo, rice flat sedge (Cyperus iria)", "conditions": "amount of applied herbicide 320 g/ha", "how_it_was_run": "as §2"}, "[13]": {"tested_on": "Japanese bulrush", "assay": "Test Example 1: herbicidal activity, application before weed generation under submerged conditions (Table 16, symbol B)", "type": "in vivo, Japanese bulrush (Schoenoplectus juncoides)", "conditions": "320 g/ha applied herbicide", "how_it_was_run": "as §4"}, "[14]": {"tested_on": "wild oat", "assay": "Test Example 5: herbicidal effect by foliage application, plastic box (Table 20, symbol I)", "type": "in vivo, wild oat (Avena fatua)", "conditions": "foliage application, 320 g/ha, evaluated three weeks after application", "how_it_was_run": "as §3"}, "[15]": {"tested_on": "oval-leafed pondweed", "assay": "Test Example 1: herbicidal activity, application before weed generation under submerged conditions (Table 16, symbol C)", "type": "in vivo, oval-leafed pondweed (Monochoria vaginalis)", "conditions": "320 g/ha applied herbicide", "how_it_was_run": "as §4"}, "[16]": {"tested_on": "chickweed", "assay": "Test Example 5: herbicidal effect by foliage application, plastic box (Table 20, symbol P)", "type": "in vivo, common chickweed (Stellaria media)", "conditions": "foliage application, 320 g/ha, evaluated three weeks after application", "how_it_was_run": "as §3"}, "[17]": {"tested_on": "barnyard grass", "assay": "Test Example 5: herbicidal effect by foliage application, plastic box (Table 20, symbol H)", "type": "in vivo, barnyard grass (Echinochloa crus-galli)", "conditions": "foliage application, 320 g/ha, evaluated three weeks after application", "how_it_was_run": "as §3"}, "[18]": {"tested_on": "persian speedwell", "assay": "Test Example 5: herbicidal effect by foliage application, plastic box (Table 20, symbol R)", "type": "in vivo, Persian speedwell (Veronica persica)", "conditions": "foliage application, 320 g/ha, evaluated three weeks after application", "how_it_was_run": "as §3"}, "[19]": {"tested_on": "Italian ryegrass", "assay": "Test Example 5: herbicidal effect by foliage application, plastic box (Table 20, symbol K)", "type": "in vivo, Italian ryegrass (Lolium multiflorum)", "conditions": "foliage application, 320 g/ha, evaluated three weeks after application", "how_it_was_run": "as §3"}, "[20]": {"tested_on": "velvetleaf", "assay": "Test Example 5: herbicidal effect by foliage application, plastic box (Table 20, symbol M)", "type": "in vivo, velvetleaf (Abutilon theophrasti)", "conditions": "foliage application, 320 g/ha, evaluated three weeks after application", "how_it_was_run": "as §3"}, "[21]": {"tested_on": "late watergrass", "assay": "Test Example 2: herbicidal activity, application during weed generation under submerged conditions (Table 17, symbol A)", "type": "in vivo, late watergrass (Echinochloa oryzicola)", "conditions": "AAH 320 g/ha; application during weed generation, submerged conditions", "how_it_was_run": "as §1"}}}
{"smiles": "Cc1nn(C)c(=O)c(-c2c(-c3ccc(C(=O)O)cc3)sc3ccc(Cl)cc23)c1O", "note": "[2-113]", "values": [{"measurement": "herbicidal effect rating, C: oval-leafed pondweed", "setting": "[1]", "result": "0 (Herbicidal rate of 5% or less (almost no effect))"}, {"measurement": "herbicidal effect rating, B: Japanese bulrush", "setting": "[2]", "result": "0 (Herbicidal rate of 5% or less (almost no effect))"}, {"measurement": "herbicidal effect on H: barnyard grass", "setting": "[3]", "result": "3 (Herbicidal rate of 40% or more and less than 70%)"}, {"measurement": "herbicidal effect on G: green foxtail", "setting": "[4]", "result": "0 (Herbicidal rate of 5% or less (almost no effect))"}, {"measurement": "herbicidal effect on L: windgrass", "setting": "[5]", "result": "0 (Herbicidal rate of 5% or less (almost no effect))"}, {"measurement": "herbicidal effect on D: Chinese sprangletop", "setting": "[6]", "result": "1 (Herbicidal rate of 5% or more and less than 20%)"}, {"measurement": "herbicidal effect on N: redroot pigweed", "setting": "[7]", "result": "0 (Herbicidal rate of 5% or less (almost no effect))"}, {"measurement": "herbicidal effect on J: blackgrass", "setting": "[8]", "result": "0 (Herbicidal rate of 5% or less (almost no effect))"}, {"measurement": "herbicidal effect on O: lambsquarters", "setting": "[9]", "result": "0 (Herbicidal rate of 5% or less (almost no effect))"}, {"measurement": "herbicidal effect on F: southern crabgrass", "setting": "[10]", "result": "0 (Herbicidal rate of 5% or less (almost no effect))"}, {"measurement": "Herbicidal effect on A: late watergrass (grade 0-5)", "setting": "[11]", "result": "3 (Herbicidal rate of 40% or more and less than 70%)"}, {"measurement": "herbicidal effect on E: rice flat sedge", "setting": "[12]", "result": "0 (Herbicidal rate of 5% or less (almost no effect))"}, {"measurement": "Herbicidal effect on B: Japanese bulrush (grade 0-5)", "setting": "[13]", "result": "0 (Herbicidal rate of 5% or less (almost no effect))"}, {"measurement": "herbicidal effect on I: wild oat", "setting": "[14]", "result": "0 (Herbicidal rate of 5% or less (almost no effect))"}, {"measurement": "Herbicidal effect on C: oval-leafed pondweed (grade 0-5)", "setting": "[15]", "result": "0 (Herbicidal rate of 5% or less (almost no effect))"}, {"measurement": "herbicidal effect on P: chickweed", "setting": "[16]", "result": "0 (Herbicidal rate of 5% or less (almost no effect))"}, {"measurement": "herbicidal effect on H: barnyard grass", "setting": "[17]", "result": "0 (Herbicidal rate of 5% or less (almost no effect))"}, {"measurement": "herbicidal effect on R: persian speedwell", "setting": "[18]", "result": "0 (Herbicidal rate of 5% or less (almost no effect))"}, {"measurement": "herbicidal effect on K: Italian ryegrass", "setting": "[19]", "result": "0 (Herbicidal rate of 5% or less (almost no effect))"}, {"measurement": "herbicidal effect on M: velvetleaf", "setting": "[20]", "result": "0 (Herbicidal rate of 5% or less (almost no effect))"}, {"measurement": "herbicidal effect rating, A: late watergrass", "setting": "[21]", "result": "2 (Herbicidal rate of 20% or more and less than 40%)"}]}
